For data set [1], the species on record is Rattus norvegicus. The data set can be described thus: Ability to inhibit accumulation [3H]5-HT in rat whole brain synaptosomes. In kind it is functional.
For data set [2], the species on record is Rattus norvegicus. The data set can be described thus: Ability to inhibit accumulation [3H]DA in rat whole brain synaptosomes. In kind it is functional.
The species entered for data set [3] is Rattus norvegicus. The data set can be described thus: Effective dose showing 29% Drug Discrimination in LSD trained rats (number of animals tested = 8-12). Type of data set: functional.
The target of data set [4] is T1, 5-hydroxytryptamine receptor 2B (Homo sapiens, UniProt P41595). Kind of data set: Antagonist activity at cloned human 5-hydroxytryptamine 2B receptor using [3H]rauwolscine radioligand.
T1 sequence (P41595 whole entry): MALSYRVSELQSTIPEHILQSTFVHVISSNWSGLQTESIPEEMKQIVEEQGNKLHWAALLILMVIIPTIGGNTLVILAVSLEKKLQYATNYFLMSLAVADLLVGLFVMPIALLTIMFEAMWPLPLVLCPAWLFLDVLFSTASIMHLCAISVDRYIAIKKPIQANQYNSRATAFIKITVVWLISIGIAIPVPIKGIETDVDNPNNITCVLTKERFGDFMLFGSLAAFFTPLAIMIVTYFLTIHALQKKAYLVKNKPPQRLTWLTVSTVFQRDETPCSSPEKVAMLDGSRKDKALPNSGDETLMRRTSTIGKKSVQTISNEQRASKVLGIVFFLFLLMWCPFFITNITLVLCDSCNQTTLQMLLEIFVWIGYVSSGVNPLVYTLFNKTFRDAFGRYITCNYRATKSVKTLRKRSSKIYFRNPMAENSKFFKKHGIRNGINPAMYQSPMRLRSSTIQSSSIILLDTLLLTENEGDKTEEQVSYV
Data set [5] deals with T2, 5-hydroxytryptamine receptor 2C (Rattus norvegicus, UniProt P08909).
T2 sequence (P08909 whole entry): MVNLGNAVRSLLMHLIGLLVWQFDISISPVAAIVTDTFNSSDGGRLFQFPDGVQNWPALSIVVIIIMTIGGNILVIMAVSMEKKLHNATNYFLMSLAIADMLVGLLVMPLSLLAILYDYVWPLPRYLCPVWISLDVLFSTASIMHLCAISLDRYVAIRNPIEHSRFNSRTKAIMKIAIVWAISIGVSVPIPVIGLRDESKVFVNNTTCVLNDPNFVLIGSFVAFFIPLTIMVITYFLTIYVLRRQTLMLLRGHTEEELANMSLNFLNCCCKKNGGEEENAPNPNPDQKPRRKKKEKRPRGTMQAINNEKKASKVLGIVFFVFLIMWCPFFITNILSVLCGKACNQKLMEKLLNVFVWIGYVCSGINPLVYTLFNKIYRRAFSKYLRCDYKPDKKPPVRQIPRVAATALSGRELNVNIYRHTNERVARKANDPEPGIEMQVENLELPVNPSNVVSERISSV
Kind of data set: Effect on phosphoinositide hydrolysis in NIH 3T3 fibroblast 5-hydroxytryptamine 2C receptor. Type of data set: functional.

The target in data set [6] is T3, 5-hydroxytryptamine receptor 1A (Rattus norvegicus, UniProt P19327).
T3 sequence (P19327 whole entry): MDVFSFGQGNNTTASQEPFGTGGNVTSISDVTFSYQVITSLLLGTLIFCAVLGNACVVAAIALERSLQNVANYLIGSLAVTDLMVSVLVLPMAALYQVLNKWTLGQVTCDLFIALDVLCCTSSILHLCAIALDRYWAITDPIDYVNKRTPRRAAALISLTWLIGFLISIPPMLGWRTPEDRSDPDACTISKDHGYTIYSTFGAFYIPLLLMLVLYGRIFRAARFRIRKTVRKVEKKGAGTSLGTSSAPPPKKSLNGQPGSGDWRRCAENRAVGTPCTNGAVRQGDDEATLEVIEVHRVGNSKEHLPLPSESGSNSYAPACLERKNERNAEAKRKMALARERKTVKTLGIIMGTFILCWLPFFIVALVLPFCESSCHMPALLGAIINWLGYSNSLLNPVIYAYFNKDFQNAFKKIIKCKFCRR
The data set can be described thus: Ability to displace [3H]-8-OH-DPAT from rat hippocampal homogenate 5-hydroxytryptamine 1A receptor. In kind it is tissue-based, Hippocampus.

For data set [7], the target named is T1, 5-hydroxytryptamine receptor 2B. Kind of data set: Agonist activity at cloned human 5-hydroxytryptamine 2B receptor using [3H]5-HT radioligand. In kind it is binding.
Data set [8] addresses T4, 5-hydroxytryptamine receptor 2C (Homo sapiens, UniProt P28335).
T4 sequence (P28335 whole entry): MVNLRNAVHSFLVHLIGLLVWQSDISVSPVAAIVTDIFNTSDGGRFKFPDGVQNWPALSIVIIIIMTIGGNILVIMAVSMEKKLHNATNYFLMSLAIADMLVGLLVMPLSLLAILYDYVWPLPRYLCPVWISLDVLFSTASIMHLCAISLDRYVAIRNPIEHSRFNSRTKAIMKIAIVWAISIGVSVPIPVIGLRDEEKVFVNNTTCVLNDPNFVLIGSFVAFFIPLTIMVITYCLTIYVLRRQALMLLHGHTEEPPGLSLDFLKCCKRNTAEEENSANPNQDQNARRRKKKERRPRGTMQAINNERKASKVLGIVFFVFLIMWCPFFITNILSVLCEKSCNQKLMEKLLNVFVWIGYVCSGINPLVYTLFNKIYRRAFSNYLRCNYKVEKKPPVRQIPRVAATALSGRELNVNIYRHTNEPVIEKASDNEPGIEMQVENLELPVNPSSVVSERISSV
Kind of data set: Agonist activity at cloned human 5-hydroxytryptamine 2C receptor using [125I]DOI radioligand. Type of data set: binding.

Data set [9] concerns the target T5, 5-hydroxytryptamine receptor 2A (Rattus norvegicus, UniProt P14842). The data set can be described thus: Effect on phosphoinositide hydrolysis in NIH 3T3 fibroblast expressing 5-hydroxytryptamine 2A receptor. In kind it is functional.
Data set [10] addresses T5, 5-hydroxytryptamine receptor 2A. The data set can be described thus: Ability to displace [3H]ketanserin from rat cortical homogenate 5-hydroxytryptamine 2A receptor.
The target in data set [11] is T4, 5-hydroxytryptamine receptor 2C. Kind of data set: Antagonist activity at cloned human 5-hydroxytryptamine 2C receptor using [3H]mesulergine radioligand.
The target in data set [12] is T6, 5-hydroxytryptamine receptor 2A (Homo sapiens, UniProt P28223). Kind of data set: Antagonist activity at cloned human 5-hydroxytryptamine 2A receptor using [3H]-Ketanserin radioligand.
T6 sequence (P28223 whole entry): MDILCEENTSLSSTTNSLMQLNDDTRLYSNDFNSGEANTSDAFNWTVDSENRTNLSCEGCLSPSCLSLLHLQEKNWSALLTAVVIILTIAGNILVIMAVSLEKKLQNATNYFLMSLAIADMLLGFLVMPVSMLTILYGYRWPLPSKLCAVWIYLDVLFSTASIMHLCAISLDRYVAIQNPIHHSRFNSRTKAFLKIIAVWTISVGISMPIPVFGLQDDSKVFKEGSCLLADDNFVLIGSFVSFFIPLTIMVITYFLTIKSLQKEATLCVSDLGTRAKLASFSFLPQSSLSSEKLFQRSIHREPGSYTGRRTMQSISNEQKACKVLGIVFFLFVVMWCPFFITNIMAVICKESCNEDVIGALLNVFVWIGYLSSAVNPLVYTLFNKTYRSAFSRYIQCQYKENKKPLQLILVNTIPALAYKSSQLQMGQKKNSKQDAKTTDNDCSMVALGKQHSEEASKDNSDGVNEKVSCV
Data set [13] has as its target T6, 5-hydroxytryptamine receptor 2A. The data set can be described thus: Agonist activity at cloned human 5-hydroxytryptamine 2A receptor using [125I]DOI radioligand.
Data set [14] deals with T1, 5-hydroxytryptamine receptor 2B. Kind of data set: Antagonist activity at cloned human 5-hydroxytryptamine 2B receptor using [3H]- rauwolscine radioligand.
Data set [15] deals with T5, 5-hydroxytryptamine receptor 2A. The data set can be described thus: Effect on phosphoinositide hydrolysis in NIH 3T3 fibroblast 5-hydroxytryptamine 2A receptor. In kind it is functional.
Data set [16] is filed under the species Rattus norvegicus. Kind of data set: Effective dose showing 50% Drug Discrimination in LSD trained rats (number of animals tested = 8-12). Type of data set: functional.
The nature of data set [17]: Partition coefficient (logP). In kind it is physicochemical. To be noted: octanol/water.

Each structure is given as a SMILES string. Where only a bound is given, the exact number is not on record here.

T5 sequence (P14842 whole entry): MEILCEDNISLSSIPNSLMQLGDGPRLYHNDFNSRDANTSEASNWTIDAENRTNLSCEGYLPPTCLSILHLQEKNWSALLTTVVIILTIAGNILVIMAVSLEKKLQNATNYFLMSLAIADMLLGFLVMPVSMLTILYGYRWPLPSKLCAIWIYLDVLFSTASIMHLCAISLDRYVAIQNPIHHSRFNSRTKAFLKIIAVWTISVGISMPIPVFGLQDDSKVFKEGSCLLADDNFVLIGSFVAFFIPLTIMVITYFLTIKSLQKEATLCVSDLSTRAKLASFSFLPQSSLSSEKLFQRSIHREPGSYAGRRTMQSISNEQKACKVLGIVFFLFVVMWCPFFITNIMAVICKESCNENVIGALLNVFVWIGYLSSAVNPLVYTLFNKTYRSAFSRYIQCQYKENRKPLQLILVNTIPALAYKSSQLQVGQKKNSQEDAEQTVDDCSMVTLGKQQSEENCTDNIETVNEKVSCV

As usually defined, the IC50 is the point on the concentration scale where inhibition reaches its midpoint. Read a high IC50 as a need for much substance. Broadly, the ED50 is the dose that gives a 50% effect, or the effect in half of the subjects. Low values mean greater potency, high ones weaker potency. The Ki is the equilibrium dissociation constant of an inhibitor or competing ligand from its target. One may read the EC50 as the concentration needed to bring the measured effect to its halfway point. A low value points to greater potency. Turning to `COc1cc(CCN)c2c(c1OC)OCC2`, the IC50 in data set [1] and in data set [2] was over 10000 nM each time. In data set [3], it took a dose of 57.8 µmol/kg to reach the 50% effect level (ED50). The Ki in [4] turned out to be 311 nM; in data set [6], 6200 nM; in data set [7] it was 523 nM; in data set [8], 118 nM; in data set [10] it was 2500 nM; in [11], 1100 nM. Further, the results for the EC50 in [5] and in data set [9] were 2000 nM and 3000 nM, respectively.
Take `COc1c2c(c(CCN)c3c1OCC3)CCO2`: the IC50 in data set [1] and in data set [2] was over 10000 nM in each case. Moreover, the Ki in data set [12] amounted to 4440 nM; in data set [13] it was 335 nM; in data set [14], 205 nM; in data set [7] it was 301 nM; in data set [8], 61.5 nM; in [11], 654 nM. The same compound gave an ED50 in data set [3] of 55.2 µmol/kg. For the same compound, the EC50 in [5] was 1000 nM; in [15], 2000 nM.
For the compound `CCOc1c(OC)cc(CCN)cc1OC`, the IC50 in [1] and in data set [2] was over 10000 nM in each case. The inhibition constant Ki in [13] turned out to be 216 nM; in data set [6], 6900 nM; in data set [7] it was 555 nM; in data set [8], 177 nM; in data set [10], 2100 nM. In addition, the EC50 worked out at 2000 nM in data set [5] and 4000 nM in data set [15]. The same compound gave an ED50 in data set [16] of 16.2 µmol/kg.
A word on the logP: it is the decadic logarithm of the partition coefficient of the neutral form, usually between octanol and water. The low end stands for a more hydrophilic compound, the high end for a more lipophilic compound. Take `COc1cc(CCN)cc(OC)c1OC` [MESCALINE]: the IC50 in data set [1] and in data set [2] was over 10000 nM throughout. Moreover, the Ki in data set [13] was found to be 551 nM; in data set [6], 6900 nM; in data set [7] it was 795 nM; in data set [8] it was 303 nM; in [10], 5500 nM. The EC50 was found to be 24000 nM in [5] and 4000 nM in data set [15]. The compound further displayed a median effective dose (ED50) in data set [16] of 33.5 µmol/kg. The same compound gave a logP in [17] of 3.15.
